By pEC50 is commonly meant −log10 of the EC50, conventionally taken in molar units.

Structures are written as SMILES. pEC50: −log10 of the molar value.

The target of test [1] is T1, human GPR40 (Homo sapiens, UniProt O14842).
T1 construct: expressed in transfected cells
The experiment in a line: GPR40 calcium flux assay, human GPR40. Format: cell-based. The following applies: HEK293 cells stably expressing GPR40; table does not say human or rat. In a few lines:
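Cells preincubated 1 h at 37° C. in HBSS, 20 mM HEPES, 0.1% BSA, then Fluo 8 calcium dye 30 min at 37° C. and 15 min at room temperature.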
(A change in cytosolic calcium serves as a functional read-out for many receptors and channels.)

In test [2] the target is T2, Human GPR120 short form (Homo sapiens, UniProt Q5NUL3).
T2 construct: expressed in transfected cells
T2 sequence (Q5NUL3 1-361): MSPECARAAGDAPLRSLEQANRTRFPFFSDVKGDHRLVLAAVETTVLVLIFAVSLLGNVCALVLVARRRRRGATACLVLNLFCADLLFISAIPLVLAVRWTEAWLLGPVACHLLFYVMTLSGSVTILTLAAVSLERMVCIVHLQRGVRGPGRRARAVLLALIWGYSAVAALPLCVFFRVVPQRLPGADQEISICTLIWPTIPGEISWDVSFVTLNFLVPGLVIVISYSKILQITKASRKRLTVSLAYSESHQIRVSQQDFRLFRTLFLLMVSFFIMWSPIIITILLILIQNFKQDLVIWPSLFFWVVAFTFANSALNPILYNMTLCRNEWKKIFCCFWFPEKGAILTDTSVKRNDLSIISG
The experiment in a line: Human GPR120 calcium flux assay, Procedure Calcium B (4200 cells/well). It counts as cell-based. In a few lines: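 Agonist EC50 came from a four-parameter fit of RFU (Fmax−Fmin) read over 300 s on FLIPR. Cells were HEK293 stably transfected with human GPR120 (NM_001195755.1) at 4200 per well, serum-starved 1 h and loaded with Fluo-4 NW dye with probenecid before ligand addition.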

T1 sequence (O14842 whole entry): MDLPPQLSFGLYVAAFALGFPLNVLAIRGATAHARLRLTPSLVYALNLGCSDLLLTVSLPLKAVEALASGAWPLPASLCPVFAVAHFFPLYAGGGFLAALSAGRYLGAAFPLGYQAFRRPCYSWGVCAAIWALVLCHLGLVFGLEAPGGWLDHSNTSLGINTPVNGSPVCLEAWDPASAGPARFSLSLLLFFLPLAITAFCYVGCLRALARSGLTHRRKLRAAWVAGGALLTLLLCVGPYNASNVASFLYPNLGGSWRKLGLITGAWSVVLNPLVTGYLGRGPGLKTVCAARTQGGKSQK

Consider `O=C(O)CCc1ccc(OCC2=C(C3CCCC3)CCCC2)cc1C(F)(F)F` [Compound 603, 3-[4-[(2-cyclopentylcyclohexen-1-yl)methoxy]-2-(trifluoromethyl)phenyl]Propanoic Acid], for which the pEC50 in test [1] is 6.73; in test [2] it was 5.71.
Taken in the same sequence, the figures for `O=C(O)CCc1ccc(OCC2=C(c3ccccc3)CC(F)(F)C2)cc1C(F)(F)F` [Compound 241] were 6.65 and 6.76.
Taken in the same sequence, the figures for `Cc1ccc(F)c(C2=C(COc3ccc(CCC(=O)O)c(Cl)c3)CCC2)c1` [Compound 343, 3-[2-chloro-4-[[2-(2-fluoro-5-methyl-phenyl)cyclopenten-1-yl]methoxy]phenyl]Propanoic Acid] were 5.96 and 5.86.
Taken in the same sequence, the figures for `O=C(O)CCc1cc(Cl)c(OCC2=C(c3ccc(F)cc3)CC(F)(F)C2)c(Cl)c1` [Compound 205, 3-[3,5-dichloro-4-[[4,4-difluoro-2-(4-fluorophenyl)cyclopenten-1-yl]methoxy]phenyl]Propanoic Acid] were < 5.30 and 6.33.
Turning to `O=C(O)CCc1ccc(OCC2=C(C3CCOCC3)CCC2)cc1C(F)(F)F` [Compound 415, 3-[4-[(2-tetrahydropyran-4-ylcyclopenten-1-yl)methoxy]-2-(trifluoromethyl)phenyl]Propanoic Acid], the values for the pEC50 in test [1] and in test [2] were 6.88 and < 5.30, respectively.
As for `COC1CCC(c2ccc(C)cc2)=C(COc2ccc(CCC(=O)O)c(C(F)(F)F)c2)C1` (centres unmarked) [Compound 577, 3-[4-[[5-methoxy-2-(p-tolyl)cyclohexen-1-yl]methoxy]-2-(trifluoromethyl)phenyl]Propanoic Acid], the negative-log EC50 (pEC50) in test [1] is 5.52; in test [2], 5.96.
Taken in the same sequence, the figures for `O=C(O)CCc1ccc(OCC2=C(C3CCCC3)CCCCC2)cc1C(F)(F)F` [Compound 612, 3-[4-[(2-cyclopentylcyclohepten-1-yl)methoxy]-2-(trifluoromethyl)phenyl]Propanoic Acid] were 6.97 and 6.63.
Taken in the same sequence, the figures for `O=C(O)CCc1ccc(OCC2=C(C3CCCC3)CCC(F)(F)CC2)cc1` [Compound 611, 3-[4-[(2-cyclopentyl-5,5-difluoro-cyclohepten-1-yl)methoxy]phenyl]Propanoic Acid] were 6.13 and 6.51.
Consider `Cc1cc(OCC2=C(c3ccc(Cl)cc3)CC(F)(F)C2)c(F)cc1CCC(=O)O` [Compound 375], for which the pEC50 in test [1] was 6.02; in test [2], 7.06.
Regarding `O=C(O)CCc1ccc(OCC2=C(C3=CCCCC3)CCC2)cc1Cl` [Compound 355, 3-[2-chloro-4-[[2-(cyclohexen-1-yl)cyclopenten-1-yl]methoxy]phenyl]Propanoic Acid], the pEC50 in test [1] is 5.43; in test [2] it was < 5.30.
Taken in the same sequence, the figures for `CC1CCC(COc2ccc(CCC(=O)O)cc2)=C1c1ccccc1` (centres unmarked) [Compound 321, 3-[4-[(3-methyl-2-phenyl-cyclopenten-1-yl)methoxy]phenyl]Propanoic Acid] were 5.58 and 6.13.
Taken in the same sequence, the figures for `O=C(O)CCc1ccc(OCC2=C(c3ccccc3)CC(F)(F)C2)cc1Cl` [Compound 242, 3-[2-chloro-4-[(4,4-difluoro-2-phenyl-cyclopenten-1-yl)methoxy]phenyl]Propanoic Acid] were 6.08 and 6.84.
Taken in the same sequence, the figures for `CSCCCCc1cc(CCC(=O)O)ccc1OCC1=C(c2ccc(Cl)cc2)CCC1` [Compound 198, 3-[4-[[2-(4-chlorophenyl)cyclopenten-1-yl]methoxy]-3-(4-methylsulfanylbutyl)phenyl]Propanoic Acid] were 5.67 and 5.89.
As for `CC1CCC(COc2ccc(CCC(=O)O)c(C(F)(F)F)c2)=C1c1ccc(Cl)cc1` (centres unmarked) [Compound 316, 3-[4-[[2-(4-chlorophenyl)-3-methyl-cyclopenten-1-yl]methoxy]-2-(trifluoromethyl)phenyl]Propanoic Acid], the figures for the pEC50 in test [1] and in test [2] were 6.79 and 5.61, respectively.
Regarding `O=C(O)CCc1ccc(OCC2=C(C3CCCC3)CCC2)cc1` [Compound 395, 3-[4-[(2-cyclopentylcyclopenten-1-yl)methoxy]phenyl]Propanoic Acid], the results for the pEC50 in test [1] and in test [2] were 6.73 and 6.59, respectively.
On to `Cc1ccc(C2=C(COc3ccc(CCC(=O)O)c(Cl)c3)CCC2)c(F)c1` [Compound 273, 3-[2-chloro-4-[[2-(2-fluoro-4-methyl-phenyl)cyclopenten-1-yl]methoxy]phenyl]Propanoic Acid], for which the pEC50 in test [1] is 5.98; in test [2], 6.67.
Taken in the same sequence, the figures for `CC(C)C1=C(COc2ccc(CCC(=O)O)c(C(F)(F)F)c2)CCC1` [Compound 377, 3-[4-[(2-isopropylcyclopenten-1-yl)methoxy]-2-(trifluoromethyl)phenyl]Propanoic Acid] were 7.38 and 6.31.
As to `[2H]C([2H])([2H])c1ccc(C2=C(COc3ccc(CCC(=O)O)c(Cl)c3)CCC2)cc1` [Compound 302-D, 3-[2-chloro-4-[[2-[4-(trideuteriomethyl)phenyl]cyclopenten-1-yl]methoxy]phenyl]Propanoic Acid], the pEC50 in test [1] is 6.02; in test [2], 6.80.
As to `Cc1ccc(C2=C(COc3cc(C)c(CCC(=O)O)cc3F)CCC2)cc1F` [Compound 264, 3-[5-fluoro-4-[[2-(3-fluoro-4-methyl-phenyl)cyclopenten-1-yl]methoxy]-2-methyl-phenyl]Propanoic Acid], the pEC50 in test [1] is 5.80; in test [2], 6.99.
Take `Cc1c(CCC(=O)O)ccc(OCC2=C(c3ccc(Cl)cc3)CCCCC2)c1C` [Compound 615, 3-[4-[[2-(4-chlorophenyl)cyclohepten-1-yl]methoxy]-2,3-dimethyl-phenyl]Propanoic Acid]: the values for the pEC50 in test [1] and in test [2] were < 5.00 and 6.76, respectively.
Taken in the same sequence, the figures for `COc1ccc(C2=C(COc3ccc(CCC(=O)O)c(C(F)(F)F)c3)CCC2)c(C)c1` [Compound 287, 3-[4-[[2-(4-methoxy-2-methyl-phenyl)cyclopenten-1-yl]methoxy]-2-(trifluoromethyl)phenyl]Propanoic Acid] were 6.82 and < 5.30.
Taken in the same sequence, the figures for `COc1ccc(C2=C(COc3c(F)cc(CCC(=O)O)cc3F)CCC2)cn1` [Compound 221, 3-[3,5-difluoro-4-[[2-(6-methoxy-3-pyridyl)cyclopenten-1-yl]methoxy]phenyl]Propanoic Acid] were < 5.30 and 6.80.
Turning to `O=C(O)CCc1ccc(OCC2=C(c3cccc(F)c3)CCC2)cc1Cl` [Compound 297, 3-[2-chloro-4-[[2-(3-fluorophenyl)cyclopenten-1-yl]methoxy]phenyl]Propanoic Acid], the pEC50 was 6.23 in test [1] and 6.37 in test [2].
For `O=C(O)CCc1ccc(OCC2=C(c3ccc(Cl)c(F)c3)CCC2)cc1Cl` [Compound 274, 3-[2-chloro-4-[[2-(4-chloro-3-fluoro-phenyl)cyclopenten-1-yl]methoxy]phenyl]Propanoic Acid], the results for the pEC50 in test [1] and in test [2] were 6.67 and 6.29, respectively.
Taken in the same sequence, the figures for `O=C(O)CCc1ccc(OCC2=C(C3CCC(F)(F)CC3)CCC2)cc1` [Compound 412, 3-[4-[[2-(4,4-difluorocyclohexyl)cyclopenten-1-yl]methoxy]phenyl]Propanoic Acid] were 6.29 and 5.33.
`O=C(O)CCc1ccc(OCC2=C(C3CCC4CC43)CCC2)cc1C(F)(F)F` (centres unmarked) [Compound 456, 3-[4-[[2-(4-bicyclo[3.1.0]hexanyl)cyclopenten-1-yl]methoxy]-2-(trifluoromethyl)phenyl]Propanoic Acid]: the pEC50 was 7.38 in test [1] and 6.03 in test [2].
For `CC(C)CC1=C(COc2ccc(CCC(=O)O)c(C(F)(F)F)c2)CC(F)(F)C1` [Compound 381, 3-[4-[(4,4-difluoro-2-isobutyl-cyclopenten-1-yl)methoxy]-2-(trifluoromethyl)phenyl]Propanoic Acid], the pEC50 was 6.82 in test [1] and 5.78 in test [2].
With `O=C(O)CCc1ccc(OCC2=C(C3(F)CCC3)CC(F)(F)C2)cc1C(F)(F)F` [Compound 429, 3-[4-[[4,4-difluoro-2-(1-fluorocyclobutyl)cyclopenten-1-yl]methoxy]-2-(trifluoromethyl)phenyl]Propanoic Acid], the negative logarithm of the EC50 (pEC50) was 7.05 in test [1] and 6.07 in test [2].
Taken in the same sequence, the figures for `CC1(C)CCC(C2CCCC2)=C(COc2ccc(CCC(=O)O)c(Cl)c2)C1` [Compound 605, 3-[2-chloro-4-[(2-cyclopentyl-5,5-dimethyl-cyclohexen-1-yl)methoxy]phenyl]Propanoic Acid] were 6.07 and 5.93.
Taken in the same sequence, the figures for `O=C(O)CCc1ccc(OCC2=C(C3=CCCCC3)CCC2)cc1C(F)(F)F` [Compound 354, 3-[4-[[2-(cyclohexen-1-yl)cyclopenten-1-yl]methoxy]-2-(trifluoromethyl)phenyl]Propanoic Acid] were 6.08 and 5.75.
Consider `Cc1cc(OCC2=C(c3ccc(Cl)cc3)CCC2)c(F)cc1CCC(=O)O` [Compound 289, 3-[4-[[2-(4-chlorophenyl)cyclopenten-1-yl]methoxy]-5-fluoro-2-methyl-phenyl]Propanoic Acid], for which the values for the pEC50 in test [1] and in test [2] were 6.00 and 6.66, respectively.

For the origin of these results see patent US11230526B1, “Cylcoalkenyl derivatives useful as agonists of the GPR120 and/or GPR40 receptors” (Janssen Pharmaceutica NV, priority 2018, dated 2022).
